Some results are limits rather than exact numbers.

One test concerns episomal HPV-16 DNA in W12-20850 cells. The test can be described thus: W-12 cellular assay: episomal HPV-16 DNA quantified by hybrid capture in W12-20850 cells. It is filed as cell-based, HPV16. Particulars: Human papillomavirus 16, 96 h, four days incubation, inhibition of episomal HPV-16 DNA relative to untreated control. On the procedure: Compounds of the current invention are believed useful in the treatment and/or prophylaxis of conditions and diseases associated with HPV infection. Activity mediated through HPV was determined using the following W-12 cellular assay. The […] cell line used contains HPV16 DNA and was derived from a low-grade cervical dysplasia tissue by Margaret Stanley and subsequently clonally selected by Paul Lambert (University of Wisconsin). One of these clones, […]-20850, contains 1000 copies of episomal HPV16 DNA and was used in the cell-based assay. […]-20850 cells were routinely cultured with a gamma-irradiated (6000 rads) feeder layer of 3T3 cells. Assays, however, were run in the absence of a 3T3 feeder layer. […]-20850 and 3T3 cells were routinely split when they were sub-confluent. […]-20850 were grown in […] Medium which is constituted of 25% DMEM (Gibco BRL, Cat # 12430-047), 75% F12 Media (Gibco BRL, Cat # 11765-021) and 2.5% FBS. The additives include […] Adenine (Sigma, Cat # A-9795), […] Hydrocortisone (Calbiochem, Cat # 386698), […] Bovine Insulin (Sigma, Cat # 1-1882), 8.4 ng/ml cholera toxin (Fluka, Cat # 26694) and 10 ng/ml EGF (Invitrogen, Cat # 13247-051). 3T3 cells were grown in DMEM containing 10% FBS. Cell lines were incubated at 37° C., in the presence of 5% CO2. For the assay, […]-20850 cells were seeded into a 96 well plate-containing compound. Plates were incubated at 37° C. in the presence of 5% CO2, for four days. On the fourth day, cells were lysed and the amount of episomal HPV-16 DNA was quantified using a non-radioactive hybrid capture technique with HPV-16 specific capture and detection probes. The percent inhibition relative to untreated control cells was then determined. The hybrid capture assay is run in a 96 well plate format. Hybridization plates (Nunc Maxisorb Cat # 450320) were coated with a mixture of capture probe and ReactiBind solution for at least 4 hours and then washed with 0.2×SSC, 0.05% Tween-20 (SSCT) prior to blocking with 150 μl/well of 0.2 N NaOH, 1% Igepal, 10 mg/ml hsDNA for 6-8 hours. The hybridization was carried out by mixing 27 μl of lysed cells with 45 μl of denatured detection probe in 6M guanidine isothiocyanate. To prevent evaporation, 50 μl of mineral oil was added to each well. The plate was then heated to 90° C. for 6.5 minutes and the hybridization continued at 42° C. overnight. Assay plates were washed 6 times with SSC/T. Anti-digoxigenin HRP-conjugated Ab (Boehringer Mannheim 1207733, 1:5000) was incubated in the wells for 30 min at room temperature and washed with PBS/0.05% Tween-20. SuperSignal LBA substrate (Pierce Cat # 37070) was added, and chemiluminescence was measured using Wallac 1420 Victor plate reader.
As usually defined, the IC50 is the concentration needed to halve the response being measured. Low readings indicate greater potency, high ones weaker potency. In the case of `Cc1ccc(C2c3[nH]c4ccccc4c3CCN2C(=O)C#Cc2ccccc2)cc1` (stereo not shown) [Example 20, 1-(4-Methylphenyl)-2-(3-phenyl-2-propynoyl)-2,3,4,9-tetrahydro-1H-b-carboline], the midpoint of inhibition, the IC50, lay at 26 µM.
The same measure, in the same setting: the result for `Cc1ccc(C2c3[nH]c4ccccc4c3CCN2C(=O)CCc2cccnc2)cc1` (stereo not drawn) [Example 21, 1-(4-Methylphenyl)-2-[3-(3-pyridinyl)propanoyl]-2,3,4,9-tetrahydro-1H-β-carboline] reads 18 µM; that for `Cc1ccc(C2c3[nH]c4ccccc4c3CCN2C(=O)CNC(=O)OCc2ccccc2)cc1` (stereo not shown) [Example 22, Phenylmethyl {2-[1-(4-methylphenyl)-1,3,4,9-tetrahydro-2H-b-carbolin-2-yl]-2-oxoethyl}carbamate], 4 µM.
`COc1ccc2[nH]c3c(c2c1)CCN(C(=O)CCc1ccccc1)C3c1ccc(C)cc1` (stereo not drawn) [Example 23, 6-(Methyloxy)-1-(4-methylphenyl)-2-(3-phenylpropanoyl)-2,3,4,9-tetrahydro-1H-β-carboline] displayed an IC50 of 0.6 µM.
On the same count and under the same terms, the figure for `Cc1ccc(C2c3[nH]c4c(C)cccc4c3CCN2C(=O)CCc2ccccc2)cc1` (stereo not drawn) [Example 24, 8-Methyl-1-(4-methylphenyl)-2-(3-phenylpropanoyl)-2,3,4,9-tetrahydro-1H-β-carboline] is 2 µM; for `Cc1ccc(C2c3[nH]c4ccc(C)cc4c3CCN2C(=O)CCc2ccccc2)cc1` (stereo not drawn) [Example 25, 6-Methyl-1-(4-methylphenyl)-2-(3-phenylpropanoyl)-2,3,4,9-tetrahydro-1H-β-carboline] it is 0.4 µM; for `Cc1ccc(C2c3[nH]c4cc(F)ccc4c3CCN2C(=O)CCc2ccccc2)cc1` (stereo not drawn) [Example 26, 7-Fluoro-1-(4-methylphenyl)-2-(3-phenylpropanoyl)-2,3,4,9-tetrahydro-1H-β-carboline] it is 2 µM.
Consider `COc1ccc2c3c([nH]c2c1)C(c1ccc(C)cc1)N(C(=O)CCc1ccccc1)CC3` (stereo not drawn) [Example 27, 7-(Methyloxy)-1-(4-methylphenyl)-2-(3-phenylpropanoyl)-2,3,4,9-tetrahydro-1H-β-carboline], for which inhibition was half-maximal at 6 µM (IC50).
Same read-out and setting: the result for `O=C(/C=C/c1ccccc1)N1CCc2c([nH]c3ccccc23)[C@H]1c1ccc2c(c1)CCO2` [Example 30, (1R)-1-(2,3-dihydro-1-benzofuran-5-yl)-2-[(2E)-3-phenyl-2-propenoyl]-2,3,4,9-tetrahydro-1H-β-carboline] reads above 20 µM; that for `O=C(/C=C/c1ccccc1)N1CCc2c([nH]c3ccccc23)[C@@H]1c1ccc2c(c1)CCO2` [Example 31, (1S)-1-(2,3-dihydro-1-benzofuran-5-yl)-2-[(2E)-3-Phenyl-2-propenoyl]-2,3,4,9-tetrahydro-1H-β-carboline], 2 µM.
On the same count and under the same terms, the result for `COc1ccc(-c2ccnc(N3CCc4c([nH]c5ccccc45)C3c3ccc4c(c3)OCO4)n2)cc1` (stereo not drawn) [Example 32, 1-(1,3-benzodioxol-5-yl)-2-{4-[4-(methyloxy)phenyl]-2-pyrimidinyl}-2,3,4,9-tetrahydro-1H-β-carboline] reads 2 µM.
For the compound `c1cnc(N2CCc3c([nH]c4ccccc34)C2c2ccc3c(c2)OCO3)nc1` (stereo not drawn) [Example 33, 1-(1,3-benzodioxol-5-yl)-2-(2-pyrimidinyl)-2,3,4,9-tetrahydro-1H-β-carboline], the IC50 is 5 µM.
The same measure, in the same setting: the figure for `c1ccc(-c2ccnc(N3CCc4c([nH]c5ccccc45)C3c3ccc4c(c3)OCO4)n2)cc1` (stereo not drawn) [Example 34, 1-(1,3-benzodioxol-5-yl)-2-(4-phenyl-2-pyrimidinyl)-2,3,4,9-tetrahydro-1H-β-carboline] is 2 µM; for `c1ccc(-c2ccnc(N3CCc4c([nH]c5ccccc45)C3c3ccccc3)n2)cc1` (stereo not drawn) [Example 35, 1-phenyl-2-(4-phenyl-2-pyrimidinyl)-2,3,4,9-tetrahydro-1H-β-carboline] it is 2 µM.
For the compound `c1ccc(-c2ccnc(N3CCc4c([nH]c5ccccc45)C3c3ccc4c(c3)CCO4)n2)cc1` (stereo not drawn) [Example 36, 1-(2,3-dihydro-1-benzofuran-5-yl)-2-(4-phenyl-2-pyrimidinyl)-2,3,4,9-tetrahydro-1H-β-carboline], the IC50 amounted to 3 µM.
On the same count and under the same terms, the result for `c1cncc(-c2ccnc(N3CCc4c([nH]c5ccccc45)C3c3ccc4c(c3)CCO4)n2)c1` (stereo not drawn) [Example 37, 1-(2,3-dihydro-1-benzofuran-5-yl)-2-[4-(3-pyridinyl)-2-pyrimidinyl]-2,3,4,9-tetrahydro-1H-β-carboline] reads 4 µM; that for `c1ccc2c3c([nH]c2c1)C(c1ccc2c(c1)CCO2)N(c1nccc(-n2ccnc2)n1)CC3` (stereo not drawn) [Example 38, 1-(2,3-dihydro-1-benzofuran-5-yl)-2-[4-(1H-imidazol-1-yl)-2-pyrimidinyl]-2,3,4,9-tetrahydro-1H-β-carboline], 3 µM; that for `Cc1cn(-c2ccnc(N3CCc4c([nH]c5ccccc45)C3c3ccc4c(c3)CCO4)n2)cn1` (stereo not drawn) [Example 39, 1-(2,3-dihydro-1-benzofuran-5-yl)-2-[4-(4-methyl-1H-imidazol-1-yl)-2-pyrimidinyl]-2,3,4,9-tetrahydro-1H-β-carboline], 2 µM.

Still in this test, the particulars now being: four days incubation, inhibition of episomal HPV-16 DNA relative to untreated control.
Compound `O=C(/C=C/c1ccccc1)N1CCc2c([nH]c3ccccc23)C1c1ccc2c(c1)CCO2` (stereo not drawn) [Example 29, (1R/1S)-1-(2,3-dihydro-1-benzofuran-5-yl)-2-[(2E)-3-phenyl-2-propenoyl]-2,3,4,9-tetrahydro-1H-β-carboline] gave an IC50 of 3 µM.

For the origin of these results see patent US20080103164A1, “USEFUL COMPOUNDS FOR HPV INFECTION” (priority 2004, published 2008).
